{"source": "ChEMBL document CHEMBL3886359", "about": "“Treatment of respiratory disorders using TRPA1 antagonists” (2015)", "format_in_all_cases": "cell-based", "key": {"[1]": {"molecular_target": "T1, Transient receptor potential cation channel subfamily V member 3 (Homo sapiens, UniProt Q8NET8)", "T1 sequence (Q8NET8 whole entry)": "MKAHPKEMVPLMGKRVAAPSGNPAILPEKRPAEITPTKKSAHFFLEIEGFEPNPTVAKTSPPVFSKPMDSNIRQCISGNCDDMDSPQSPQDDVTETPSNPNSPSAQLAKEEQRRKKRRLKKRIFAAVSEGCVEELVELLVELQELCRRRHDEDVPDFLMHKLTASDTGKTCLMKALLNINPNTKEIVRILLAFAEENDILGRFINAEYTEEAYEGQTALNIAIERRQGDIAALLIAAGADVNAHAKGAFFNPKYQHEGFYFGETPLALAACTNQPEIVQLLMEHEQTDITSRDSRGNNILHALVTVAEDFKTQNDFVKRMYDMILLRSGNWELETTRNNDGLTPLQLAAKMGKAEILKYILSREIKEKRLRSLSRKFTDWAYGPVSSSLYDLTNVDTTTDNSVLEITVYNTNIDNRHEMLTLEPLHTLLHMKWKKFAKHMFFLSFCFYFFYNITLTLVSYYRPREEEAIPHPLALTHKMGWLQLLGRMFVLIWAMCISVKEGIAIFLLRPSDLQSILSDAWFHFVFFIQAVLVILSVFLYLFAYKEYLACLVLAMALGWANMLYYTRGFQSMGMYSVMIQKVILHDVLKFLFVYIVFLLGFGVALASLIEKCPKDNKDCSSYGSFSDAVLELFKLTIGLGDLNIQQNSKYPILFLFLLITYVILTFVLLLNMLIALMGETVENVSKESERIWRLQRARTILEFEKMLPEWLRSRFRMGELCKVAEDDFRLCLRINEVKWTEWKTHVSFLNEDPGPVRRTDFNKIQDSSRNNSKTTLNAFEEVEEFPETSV", "test": "(§1) Radiometric Calcium Assay: The inhibition of TRPA1 receptor activation was measured as inhibition of allylisothiocyanate (AITC) induced cellular uptake of radioactive calcium. Test compounds were dissolved in DMSO to prepare 10 mM stock solution and then diluted using plain medium with 0.1% BSA and 1.8 mM CaCl2 to get desired concentration. Final concentration of DMSO in the reaction was 0.5% (v/v). Human TRPA1 expressing CHO cells were grown in F-12 DMEM medium with 10% FBS, 1% penicillin-streptomycin solution, and 400 ug/ml of G-418. Cells were seeded 24 h prior to the assay in 96 well plates so as to get 50,000 cells per well on the day of experiment. Cells were treated with test compounds for 10 min followed by addition of AITC at a final concentration of 30 micromolar and 5 uCi/ml 45Ca+2 for 3 min at 25° C. Cells were washed and lysed using buffer containing 1% Triton X-100, 0.1% deoxycholate and 0.1% SDS. Radioactivity in the lysate was measured in Packard Top count."}, "[2]": {"molecular_target": "Transient receptor potential cation channel subfamily V member 1 (Homo sapiens, UniProt Q8NER1)", "sequence (Q8NER1 whole entry)": "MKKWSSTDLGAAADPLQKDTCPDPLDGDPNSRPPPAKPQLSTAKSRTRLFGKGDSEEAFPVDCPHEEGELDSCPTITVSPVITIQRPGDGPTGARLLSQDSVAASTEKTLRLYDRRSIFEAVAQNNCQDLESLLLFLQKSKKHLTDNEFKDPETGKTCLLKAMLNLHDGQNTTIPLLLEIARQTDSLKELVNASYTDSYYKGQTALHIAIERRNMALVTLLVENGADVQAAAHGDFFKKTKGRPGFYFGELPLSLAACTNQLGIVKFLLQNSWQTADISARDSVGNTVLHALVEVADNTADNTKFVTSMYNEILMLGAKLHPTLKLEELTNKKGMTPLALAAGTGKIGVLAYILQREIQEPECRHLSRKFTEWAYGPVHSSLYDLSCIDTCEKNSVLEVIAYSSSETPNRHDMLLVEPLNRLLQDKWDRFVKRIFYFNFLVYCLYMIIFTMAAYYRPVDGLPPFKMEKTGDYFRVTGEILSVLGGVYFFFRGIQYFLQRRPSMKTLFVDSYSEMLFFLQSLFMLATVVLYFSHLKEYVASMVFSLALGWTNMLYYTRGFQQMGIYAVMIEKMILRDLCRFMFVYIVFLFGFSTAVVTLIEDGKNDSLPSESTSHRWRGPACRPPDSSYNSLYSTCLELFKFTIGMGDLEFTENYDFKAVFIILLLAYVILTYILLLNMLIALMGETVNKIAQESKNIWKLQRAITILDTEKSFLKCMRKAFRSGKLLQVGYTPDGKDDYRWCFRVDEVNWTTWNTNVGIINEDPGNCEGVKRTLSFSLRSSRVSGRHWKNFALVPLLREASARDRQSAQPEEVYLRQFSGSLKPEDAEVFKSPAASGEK", "test": "as §1"}, "[3]": {"molecular_target": "Transient receptor potential cation channel subfamily M member 8 (Homo sapiens, UniProt Q7Z2W7)", "sequence (Q7Z2W7 whole entry)": "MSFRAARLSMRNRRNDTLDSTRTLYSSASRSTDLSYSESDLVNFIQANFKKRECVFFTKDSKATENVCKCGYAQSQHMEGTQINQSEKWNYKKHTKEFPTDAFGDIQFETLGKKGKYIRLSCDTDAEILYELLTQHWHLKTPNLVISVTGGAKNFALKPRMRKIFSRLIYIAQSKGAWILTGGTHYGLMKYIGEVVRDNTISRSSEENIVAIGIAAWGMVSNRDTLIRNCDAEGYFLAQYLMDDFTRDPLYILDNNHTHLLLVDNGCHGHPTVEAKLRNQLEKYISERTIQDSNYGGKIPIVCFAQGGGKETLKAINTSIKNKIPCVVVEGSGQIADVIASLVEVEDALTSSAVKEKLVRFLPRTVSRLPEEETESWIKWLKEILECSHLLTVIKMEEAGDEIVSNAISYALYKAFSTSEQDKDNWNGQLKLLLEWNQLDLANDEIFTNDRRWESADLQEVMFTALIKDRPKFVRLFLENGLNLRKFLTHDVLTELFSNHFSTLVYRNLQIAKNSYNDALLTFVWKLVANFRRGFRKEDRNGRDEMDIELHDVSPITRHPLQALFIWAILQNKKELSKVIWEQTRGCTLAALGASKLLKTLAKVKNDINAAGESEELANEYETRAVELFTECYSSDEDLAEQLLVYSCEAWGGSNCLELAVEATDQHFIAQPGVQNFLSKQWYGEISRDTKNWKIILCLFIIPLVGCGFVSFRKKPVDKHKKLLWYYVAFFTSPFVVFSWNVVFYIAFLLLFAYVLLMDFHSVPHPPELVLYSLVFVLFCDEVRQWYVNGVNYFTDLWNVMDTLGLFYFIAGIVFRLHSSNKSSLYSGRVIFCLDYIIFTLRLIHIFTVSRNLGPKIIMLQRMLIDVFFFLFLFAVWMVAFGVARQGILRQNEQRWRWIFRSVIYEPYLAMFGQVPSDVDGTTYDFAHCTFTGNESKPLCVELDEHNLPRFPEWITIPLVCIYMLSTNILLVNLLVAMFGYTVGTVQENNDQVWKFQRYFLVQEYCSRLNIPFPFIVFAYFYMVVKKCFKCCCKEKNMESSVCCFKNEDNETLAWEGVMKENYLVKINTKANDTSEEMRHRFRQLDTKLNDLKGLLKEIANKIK", "test": "as §1"}, "[4]": {"molecular_target": "Transient receptor potential cation channel subfamily V member 4 (Homo sapiens, UniProt Q9HBA0)", "sequence (Q9HBA0 whole entry)": "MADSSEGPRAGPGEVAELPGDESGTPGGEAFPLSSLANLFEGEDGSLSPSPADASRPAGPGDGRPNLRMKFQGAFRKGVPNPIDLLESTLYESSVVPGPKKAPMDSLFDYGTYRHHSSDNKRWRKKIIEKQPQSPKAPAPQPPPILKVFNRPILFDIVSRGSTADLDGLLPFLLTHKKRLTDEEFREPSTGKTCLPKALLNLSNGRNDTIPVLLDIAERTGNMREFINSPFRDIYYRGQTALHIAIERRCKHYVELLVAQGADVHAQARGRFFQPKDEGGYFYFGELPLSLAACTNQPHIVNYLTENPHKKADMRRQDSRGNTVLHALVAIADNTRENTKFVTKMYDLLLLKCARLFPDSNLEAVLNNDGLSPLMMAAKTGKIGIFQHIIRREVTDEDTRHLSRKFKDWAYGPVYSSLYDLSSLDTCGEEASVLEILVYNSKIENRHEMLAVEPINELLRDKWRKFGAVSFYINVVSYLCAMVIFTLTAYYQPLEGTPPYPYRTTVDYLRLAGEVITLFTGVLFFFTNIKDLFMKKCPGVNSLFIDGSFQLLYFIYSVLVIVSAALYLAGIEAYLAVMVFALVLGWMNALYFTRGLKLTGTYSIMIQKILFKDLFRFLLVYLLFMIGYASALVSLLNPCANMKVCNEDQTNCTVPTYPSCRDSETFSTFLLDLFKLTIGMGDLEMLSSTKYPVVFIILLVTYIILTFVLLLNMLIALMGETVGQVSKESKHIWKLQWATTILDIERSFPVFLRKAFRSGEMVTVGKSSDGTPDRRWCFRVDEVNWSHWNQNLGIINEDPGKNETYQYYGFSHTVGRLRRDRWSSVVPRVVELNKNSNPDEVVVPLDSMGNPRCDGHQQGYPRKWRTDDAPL", "test": "as §1"}, "[5]": {"molecular_target": "Transient receptor potential cation channel subfamily A member 1 (Homo sapiens, UniProt O75762)", "sequence (O75762 whole entry)": "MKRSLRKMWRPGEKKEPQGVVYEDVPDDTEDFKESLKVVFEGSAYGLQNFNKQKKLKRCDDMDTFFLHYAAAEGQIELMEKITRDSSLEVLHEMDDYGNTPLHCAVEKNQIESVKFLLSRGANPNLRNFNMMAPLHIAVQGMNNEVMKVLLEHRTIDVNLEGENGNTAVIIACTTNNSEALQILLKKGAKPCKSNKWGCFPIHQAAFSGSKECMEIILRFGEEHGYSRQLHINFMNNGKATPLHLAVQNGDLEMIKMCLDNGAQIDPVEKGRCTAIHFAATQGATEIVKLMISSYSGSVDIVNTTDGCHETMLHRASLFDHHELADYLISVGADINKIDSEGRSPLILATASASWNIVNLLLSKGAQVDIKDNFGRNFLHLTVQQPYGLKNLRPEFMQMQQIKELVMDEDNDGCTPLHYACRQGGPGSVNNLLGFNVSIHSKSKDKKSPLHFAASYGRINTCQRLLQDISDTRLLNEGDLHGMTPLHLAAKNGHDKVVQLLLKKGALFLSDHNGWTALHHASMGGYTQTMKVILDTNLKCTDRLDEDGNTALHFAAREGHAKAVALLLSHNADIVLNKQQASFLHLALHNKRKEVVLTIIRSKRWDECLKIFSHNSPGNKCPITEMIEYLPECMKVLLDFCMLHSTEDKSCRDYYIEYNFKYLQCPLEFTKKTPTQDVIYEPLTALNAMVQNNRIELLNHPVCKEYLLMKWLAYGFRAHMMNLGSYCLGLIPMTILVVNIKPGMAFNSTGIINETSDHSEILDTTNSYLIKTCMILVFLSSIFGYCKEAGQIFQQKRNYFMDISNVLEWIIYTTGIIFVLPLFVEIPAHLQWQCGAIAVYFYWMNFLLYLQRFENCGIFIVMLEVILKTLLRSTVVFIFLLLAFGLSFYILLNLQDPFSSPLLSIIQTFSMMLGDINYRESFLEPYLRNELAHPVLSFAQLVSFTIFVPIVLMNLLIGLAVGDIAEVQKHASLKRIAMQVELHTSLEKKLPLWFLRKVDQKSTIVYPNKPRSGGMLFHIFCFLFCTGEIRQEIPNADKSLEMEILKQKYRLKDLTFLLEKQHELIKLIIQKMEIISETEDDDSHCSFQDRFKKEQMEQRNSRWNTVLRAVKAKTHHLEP", "test": "as §1"}}, "data": [{"smiles": "Cc1oc2c(c1CC(=O)Nc1nc(-c3ccc(OC(F)(F)F)c(Cl)c3)cs1)c(=O)n(C)c(=O)n2C", "values": [{"measurement": "IC50", "setting": "[1]", "result": 4450, "unit": "nM"}, {"measurement": "IC50", "setting": "[2]", "result": "> 10", "unit": "µM"}, {"measurement": "IC50", "setting": "[3]", "result": "> 10", "unit": "µM"}, {"measurement": "IC50", "setting": "[4]", "result": 5.74, "unit": "µM"}]}, {"smiles": "Cn1nc2c(c1CC(=O)/N=c1\\scc(-c3ccc(F)c(C(F)(F)F)c3F)n1COP(=O)(O)O)c(=O)n(C)c(=O)n2C", "values": [{"measurement": "IC50", "setting": "[1]", "result": "> 10000", "unit": "nM"}, {"measurement": "IC50", "setting": "[2]", "result": "> 10", "unit": "µM"}, {"measurement": "IC50", "setting": "[5]", "result": 1580, "unit": "nM"}, {"measurement": "IC50", "setting": "[3]", "result": "> 10", "unit": "µM"}, {"measurement": "IC50", "setting": "[4]", "result": "> 10", "unit": "µM"}]}, {"smiles": "Cc1oc2c(c1CC(=O)/N=c1\\scc(-c3ccc(OC(F)(F)F)c(Cl)c3)n1COC(=O)[C@@H](N)C(C)C)c(=O)n(C)c(=O)n2C", "values": [{"measurement": "IC50", "setting": "[1]", "result": 2810, "unit": "nM"}, {"measurement": "IC50", "setting": "[2]", "result": "> 10", "unit": "µM"}, {"measurement": "IC50", "setting": "[3]", "result": "> 10", "unit": "µM"}, {"measurement": "IC50", "setting": "[4]", "result": 2.35, "unit": "µM"}]}, {"smiles": "Cn1c(=O)c2c(CC(=O)Nc3nc(-c4ccc(F)c(C(F)(F)F)c4F)cs3)csc2n(C)c1=O", "values": [{"measurement": "IC50", "setting": "[1]", "result": 2520, "unit": "nM"}, {"measurement": "IC50", "setting": "[4]", "result": 3.04, "unit": "µM"}]}, {"smiles": "Cn1c(=O)c2c(CC(=O)Nc3nc(-c4ccc(C(F)(F)F)c(F)c4F)cs3)nsc2n(C)c1=O", "values": [{"measurement": "IC50", "setting": "[1]", "result": 2830, "unit": "nM"}, {"measurement": "IC50", "setting": "[2]", "result": 17.7, "unit": "µM"}, {"measurement": "IC50", "setting": "[3]", "result": "> 10", "unit": "µM"}, {"measurement": "IC50", "setting": "[4]", "result": 0.132, "unit": "µM"}]}, {"smiles": "Cc1oc2c(c1CC(=O)/N=c1\\scc(-c3ccc(OC(F)(F)F)c(Cl)c3)n1COP(=O)(O)O)c(=O)n(C)c(=O)n2C", "values": [{"measurement": "IC50", "setting": "[1]", "result": "> 10000", "unit": "nM"}, {"measurement": "IC50", "setting": "[2]", "result": "> 10", "unit": "µM"}, {"measurement": "IC50", "setting": "[5]", "result": 1180, "unit": "nM"}, {"measurement": "IC50", "setting": "[3]", "result": "> 10", "unit": "µM"}, {"measurement": "IC50", "setting": "[4]", "result": "> 10", "unit": "µM"}]}]}
